According to patent US8178535B2, “Substituted sulfonamide compounds having bradykinin 1 receptor activity and use thereof as medicaments” (Gruenenthal GmbH, priority 2008, dated 2012):

Tests used:
[1] = target: T1, human B1R receptor (hB1R) (Homo sapiens, UniProt P46663); assay: FLIPR Ca2+ assay (Fluo-4) on CHO K1 cells stably transfected with the human B1R gene; type: cell-based; conditions: CHO-K1; test substance 10 μM; agonist Lys-Des-Arg9-bradykinin 0.5 nM; % inhibition compared to the maximum achievable inhibition
T1 construct: host or cells: CHO K1 cells
T1 sequence (P46663 1-353): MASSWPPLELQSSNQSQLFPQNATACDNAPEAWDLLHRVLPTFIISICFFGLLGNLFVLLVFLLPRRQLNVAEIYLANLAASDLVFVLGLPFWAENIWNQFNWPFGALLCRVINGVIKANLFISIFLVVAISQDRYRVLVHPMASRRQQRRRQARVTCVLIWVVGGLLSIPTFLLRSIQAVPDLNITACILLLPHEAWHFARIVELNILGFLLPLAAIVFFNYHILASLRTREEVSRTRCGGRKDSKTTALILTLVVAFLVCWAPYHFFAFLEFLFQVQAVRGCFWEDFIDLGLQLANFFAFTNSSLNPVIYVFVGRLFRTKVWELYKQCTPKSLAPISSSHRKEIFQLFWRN
Experimental: (§1) The agonistic or antagonistic action of compounds can be quantified on the bradykinin 1 receptor (B1R) of humans and rats with ectopically expressing cell lines (CHO K1 cells) and with the aid of a Ca^2+-sensitive dye (Fluo-4) in the fluorescent imaging plate reader (FLIPR). The figure in percent activation refers to the Ca^2+ signal after addition of Lys-Des-Arg^9-bradykinin (0.5 nM) and Des-Arg^9-bradykinin (100 nM). Antagonists result in a suppression of the Ca^2+ inflow after the addition of the agonist. Percent inhibition values are given in comparison to the maximum achievable inhibition. The compounds according to the invention act, for example, on the B1R which is implicated in various disease states. This means that the compounds of the invention are useful as pharmaceutically active substances in medicaments for the treatment and/or inhibition of such disease states.
(§2) The agonistic or antagonistic action of substances can be determined on the bradykinin 1 receptor (B1R) of humans and rats by means of the following assay. According to this assay the Ca^2+ inflow through the channel is quantified by means of a Ca^2+-sensitive dye (Fluo-4 type, Molecular Probes Europe BV, Leiden, Netherlands), in a Fluorescent Imaging Plate Reader (FLIPR, Molecular Devices, Sunnyvale, USA).
(§3) Chinese hamster ovary cells (CHO K1 cells) are used, which are stably transfected with the human B1R gene (hB1R cells, Euroscreen s.a., Gosselies, Belgium), or with the B1R gene of rats (rB1R cells, Axxam, Milan, Italy). For functional investigations these cells are plated out on black 96-well plates with a clear floor (BD Biosciences, Heidelberg, Germany) in a density of 20,000/25,000 cells/well. The cells are incubated overnight with 10 vol. % FBS (foetal bovine serum, Gibco Invitrogen GmbH, Karlsruhe, Germany) at 37° C. and 5% CO2 in a culture medium (hB1R cells: Nutrient Mixture Ham's F12, Gibco Invitrogen GmbH, Karlsruhe, Germany; rB1R cells: D-MEM/F12, Gibco Invitrogen GmbH, Karlsruhe, Germany). The following day the cells are charged for 60 minutes at 37° C. with 2.13 μM Fluo-4 (Molecular Probes Europe BV, Leiden, Netherlands) in HBSS buffer (Hank's buffered saline solution, Gibco Invitrogen GmbH, Karlsruhe, Germany) together with […] (Sigma-Aldrich, Taufkirchen, Germany) and 10 mM HEPES (Sigma-Aldrich, Taufkirchen, Germany).
(§4) The plates are then washed twice with HBSS buffer and HBSS buffer is added which additionally contains 0.1% BSA (bovine serum albumin; Sigma-Aldrich, Taufkirchen, Germany), 5.6 mM glucose and 0.05% gelatin (Merck KGaA, Darmstadt, Germany). After further incubation for 20 minutes at room temperature the plates are used for the Ca^2+ measurement in the FLIPR. The Ca^2+-dependent fluorescence is measured both before and after the addition of substances (λex=488 nm, λem=540 nm). The quantification is carried out by measuring the highest fluorescence intensity (FC, fluorescence counts) over time.
(§5) The FLIPR protocol consists of two substance additions. First, test substances (10 μM) are pipetted onto the cells and the Ca^2+ inflow is compared with the control (hB1R: Lys-Des-Arg9-bradykinin 0.5 nM; rB1R: Des-Arg9-bradykinin 100 nM). This gives the result in percent activation referred to the Ca^2+ signal after addition of Lys-Des-Arg9-bradykinin (0.5 nM), bzw. Des-Arg9-bradykinin (100 nM). After 10 minutes' incubation 0.5 nM Lys-Des-Arg9-bradykinin (hB1R) and 100 nM Des-Arg^9-bradykinin (rB1R) are applied and the inflow of Ca^2+ is likewise determined. Antagonists lead to a suppression of the Ca^2+ inflow. The percent inhibition compared to the maximum achievable inhibition is calculated. The compounds show a good activity on both human and rat receptors.
(§6) The agonistic and antagonistic action of the compounds according to the invention on the bradykinin 1 receptor (B1R) of humans and rats were determined as described above. Antagonists lead to a suppression of the Ca^2+ inflow. […]

[2] = target: T2, B1R receptor of rats (rB1R) (Rattus norvegicus, UniProt P97583); assay: FLIPR Ca2+ assay (Fluo-4) on CHO K1 cells stably transfected with the B1R gene of rats; type: cell-based; conditions: CHO-K1; test substance 10 μM; agonist Des-Arg9-bradykinin 100 nM; % inhibition compared to the maximum achievable inhibition
T2 construct: host or cells: CHO K1 cells
T2 sequence (P97583 1-337): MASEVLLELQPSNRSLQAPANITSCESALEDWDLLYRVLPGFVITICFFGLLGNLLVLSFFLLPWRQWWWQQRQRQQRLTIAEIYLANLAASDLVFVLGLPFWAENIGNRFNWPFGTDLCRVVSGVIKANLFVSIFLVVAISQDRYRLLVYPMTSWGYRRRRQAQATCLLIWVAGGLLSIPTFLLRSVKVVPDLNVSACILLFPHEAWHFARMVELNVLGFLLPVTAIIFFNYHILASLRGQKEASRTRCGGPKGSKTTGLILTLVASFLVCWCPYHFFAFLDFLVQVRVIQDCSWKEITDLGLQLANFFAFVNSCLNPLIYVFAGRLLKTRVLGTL
Experimental: as §1, §2, §3, §4, §5, §6

Row | inhibition at 10 µM [1] [%] | inhibition at 10 µM [2] [%] | SMILES
1 | 56 | 100 | COc1cc(C)c(S(=O)(=O)N2CCCCC2COCC(=O)N2CCn3cnnc3C2)c(C)c1 (centres unmarked) [(1), 1-(5,6-dihydro-[1,2,4]triazolo[4,3-a]pyrazin-7(8H)-yl)-2-((1-(4-methoxy-2,6-dimethylphenylsulfonyl)piperidin-2-yl)methoxy)ethanone]
2 | 105 | 106 | COc1cc(C)c(S(=O)(=O)N2CCCCC2COCC(=O)N2CCn3cc(CN4CCCCC4)nc3C2)c(C)c1 (centres unmarked) [(2), 2-((1-(4-methoxy-2,6-dimethylphenylsulfonyl)piperidin-2-yl)methoxy)-1-(2-(piperidin-1-ylmethyl)-5,6-dihydroimidazo[1,2-a]pyrazin-7(8H)-yl)ethanone]
3 | 105 | 101 | COc1cc(C)c(S(=O)(=O)N2CCCCC2COCC(=O)N2CCn3c(CN4CCN(C)CC4)ccc3C2)c(C)c1 (centres unmarked) [(4), 2-((1-(4-methoxy-2,6-dimethylphenylsulfonyl)piperidin-2-yl)methoxy)-1-(6-((4-methylpiperazin-1-yl)methyl)-3,4-dihydropyrrolo[1,2-a]pyrazin-2(1H)-yl)ethanone]
4 | 100 | 51 | Cc1cc(S(=O)(=O)N2CCCCC2CCC(=O)N2CCn3c(CN4CCN(C)CC4)ccc3C2)c(C)cc1Cl (centres unmarked) [(5), 3-(1-(4-chloro-2,5-dimethylphenylsulfonyl)piperidin-2-yl)-1-(6-((4-methyl-piperazin-1-yl)methyl)-3,4-dihydropyrrolo[1,2-a]pyrazin-2(1H)-yl)propan-1-one]
5 | 100 | 101 | COc1cc(C)c(S(=O)(=O)N2CCCCC2COCC(=O)N2CCn3c(CN4CCOCC4)ccc3C2)c(C)c1 (centres unmarked) [(6), 2-((1-(4-methoxy-2,6-dimethylphenylsulfonyl)piperidin-2-yl)methoxy)-1-(6-(morpholinomethyl)-3,4-dihydropyrrolo[1,2-a]pyrazin-2(1H)-yl)ethanone]
6 | 87 | 52 | CN1CCN(Cc2ccc3n2CCN(C(=O)CC2CCCCN2S(=O)(=O)c2cccc(C(F)(F)F)c2)C3)CC1 (centres unmarked) [(7), 1-(6-((4-methylpiperazin-1-yl)methyl)-3,4-dihydropyrrolo[1,2-a]pyrazin-2(1H)-yl)-2-(1-(3-(trifluoromethyl)phenylsulfonyl)piperidin-2-yl)ethanone]
7 | 99 | 96 | O=C(CC1CCCCN1S(=O)(=O)c1cccc(C(F)(F)F)c1)N1CCn2c(CN3CCCC3)ccc2C1 (centres unmarked) [(8), 1-(6-(pyrrolidin-1-ylmethyl)-3,4-dihydropyrrolo[1,2-a]pyrazin-2(1H)-yl)-2-(1-(3-(trifluoromethyl)phenylsulfonyl)piperidin-2-yl)ethanone]
8 | 104 | 48 | Cc1cc(S(=O)(=O)N2CCCCC2CCC(=O)N2CCn3c(CN4CCCC4)ccc3C2)c(C)cc1Cl (centres unmarked) [(9), 3-(1-(4-chloro-2,5-dimethylphenylsulfonyl)piperidin-2-yl)-1-(6-(pyrrolidin-1-ylmethyl)-3,4-dihydropyrrolo[1,2-a]pyrazin-2(1H)-yl)propan-1-one]
9 | 101 | 91 | O=C(COCC1CCc2ccccc2N1S(=O)(=O)c1ccc(Cl)c(Cl)c1)N1CCn2c(CN3CCCC3)ccc2C1 (centres unmarked) [(10), 2-((1-(3,4-dichlorophenylsulfonyl)-1,2,3,4-tetrahydroquinolin-2-yl)methoxy)-1-(6-(pyrrolidin-1-ylmethyl)-3,4-dihydropyrrolo[1,2-a]pyrazin-2(1H)-yl)ethanone]
10 | 100 | 56 | CN1CCN(Cc2ccc3n2CCN(C(=O)COCC2CCc4ccccc4N2S(=O)(=O)c2ccc(Cl)c(Cl)c2)C3)CC1 (centres unmarked) [(11), 2-((1-(3,4-dichlorophenylsulfonyl)-1,2,3,4-tetrahydroquinolin-2-yl)methoxy)-1-(6-((4-methylpiperazin-1-yl)methyl)-3,4-dihydropyrrolo[1,2-a]pyrazin-2(1H)-yl)ethanone]
11 | 103 | 57 | Cc1cc(S(=O)(=O)N2CCCCC2CCC(=O)N2CCn3c(CN4CCOCC4)ccc3C2)c(C)cc1Cl (centres unmarked) [(12), 3-(1-(4-chloro-2,5-dimethylphenylsulfonyl)piperidin-2-yl)-1-(6-(morpholino-methyl)-3,4-dihydropyrrolo[1,2-a]pyrazin-2(1H)-yl)propan-1-one]
12 | 102 | 102 | COc1cc(C)c(S(=O)(=O)N2CCCCC2COCC(=O)N2CCn3c(CN4CCCC4)ccc3C2)c(C)c1 (centres unmarked) [(13), 2-((1-(4-methoxy-2,6-dimethylphenylsulfonyl)piperidin-2-yl)methoxy)-1-(6-(pyrrolidin-1-ylmethyl)-3,4-dihydropyrrolo[1,2-a]pyrazin-2(1H)-yl)ethanone]
13 | 97 | 99 | COc1cc(C)c(S(=O)(=O)N2CCCCC2COCC(=O)N2CCn3c(CCCN4CCN(C)CC4)ccc3C2)c(C)c1 (centres unmarked) [(14), 2-((1-(4-methoxy-2,6-dimethylphenylsulfonyl)piperidin-2-yl)methoxy)-1-(6-(3-(4-methylpiperazin-1-yl)propyl)-3,4-dihydropyrrolo[1,2-a]pyrazin-2(1H)-yl)ethanone]
14 | 46 | 100 | CN1CCN(CCCc2ccc3n2CCN(C(=O)CC2CCCCN2S(=O)(=O)c2cccc(C(F)(F)F)c2)C3)CC1 (centres unmarked) [(15), 1-(6-(3-(4-methylpiperazin-1-yl)propyl)-3,4-dihydropyrrolo[1,2-a]pyrazin-2(1H)-yl)-2-(1-(3-(trifluoromethyl)phenylsulfonyl)piperidin-2-yl)ethanone]
15 |  | 103 | COc1cc(C)c(S(=O)(=O)N2CCCCC2COCC(=O)N2CCn3c(CN4CCCCC4)nnc3C2)c(C)c1 (centres unmarked) [(87), 2-((1-(4-Methoxy-2,6-dimethylphenylsulfonyl)piperidin-2-yl)methoxy)-1-(3-(piperidin-1-ylmethyl)-5,6-dihydro-[1,2,4]triazolo[4,3-a]pyrazin-7(8H)-yl)ethanone]
